Measured values taken from US12617770B2, “IRAK inhibitor and preparation method therefor and use thereof” (WUHAN CREATERNA SCIENCE AND TECHNOLOGY CO., LTD., priority 2019, dated 2026).
pIC50: −log10 of the molar value.

Target: T1, human IRAK4 (Homo sapiens, UniProt Q9NWZ3)
T1 construct: purchased Cama (so in the source)
T1 sequence (Q9NWZ3 1-460): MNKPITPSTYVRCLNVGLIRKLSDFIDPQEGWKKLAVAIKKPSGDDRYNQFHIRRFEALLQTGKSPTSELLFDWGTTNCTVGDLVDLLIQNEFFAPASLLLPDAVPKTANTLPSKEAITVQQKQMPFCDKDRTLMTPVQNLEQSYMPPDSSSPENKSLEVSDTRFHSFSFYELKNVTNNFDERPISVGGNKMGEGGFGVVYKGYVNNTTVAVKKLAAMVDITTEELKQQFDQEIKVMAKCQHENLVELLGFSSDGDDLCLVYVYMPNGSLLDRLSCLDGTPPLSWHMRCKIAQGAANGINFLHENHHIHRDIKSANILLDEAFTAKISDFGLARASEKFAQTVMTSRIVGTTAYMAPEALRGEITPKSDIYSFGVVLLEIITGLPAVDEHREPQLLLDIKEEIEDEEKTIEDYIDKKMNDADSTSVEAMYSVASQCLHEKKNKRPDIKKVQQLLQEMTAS
Experiment: IRAK4 MSA (Mobility-Shift Assay) at Km concentration of ATP
Type: biochemical
Settings: GST-IRAK4 1 nM, ATP 37 μM (Km); read-out: IC50 for inhibiting human IRAK4 activity
Description: A recombinant fusion protein of N-terminal GST (glutathione-S-transferase) and human IRAK4 was used as enzyme (GST-IRAK4, kinase IRAK4 (Cama, CAT No. 09-145)) at a final concentration of 1 nM; ATP (Sigma. CAT No. A7699-1G) was at a final concentration of 37 μM; • the substrates used for the kinase reaction were 5-FAM (5-carboxyfluorescein)-labeled polypeptide (5-FAM-[…]-COOH) and substrate peptide FAM-P8 (GL Biochem, CAT No. 112396) at final concentrations of 5 μM.
In this assay, 500 μM stock solutions of the compounds were prepared in 100% DMSO, and serially 4-fold diluted to the 10th concentration gradient with 100% DMSO, followed by a 10-fold dilution in the compound buffer (50 mM HEPES, pH 7.5, 0.00015% Brij-35) to give intermediate dilutions of the compounds at a final concentration of 10 μM−0.04 nM containing 10% DMSO. 5 μL of the intermediate dilution was transferred into a black 384-well plate.
IRAK4 was diluted to 2.5 nM in the kinase buffer (50 mM HEPES, pH 7.5, 0.00015% Brij-35, 2 mM DTT). 10 μL of the IRAK4 dilution was transferred to the 384-well plate and co-incubated with the compound for 10-15 min.
The substrate and ATP were diluted to 12.5 μM and 92.5 μM with reaction buffer (50 mM HEPES, pH 7.5, 0.00015% Brij-35, 10 mM MgCl2), respectively. 10 μL of the dilution was transferred to a 384-well plate and incubated at 28° C. for 1 h. The reaction was terminated by adding 25 μL of 50 mM EDTA to the 384-well plate.
The inhibition rate of IRAK4 by the compounds was calculated by measuring the rate of phosphorylated substrate using a Caliper EZ Reader (PerkinElmer) and the IC50 was calculated by XL-fit software. […] In particular, some exemplary compound activity values are as follows: […]

SMILES	pIC50
Cc1cccc(C(=O)Nc2cc3cn([C@H]4CC[C@@](C)(O)CC4)nc3cc2N(C)C)[n+]1[O-] [Compound 287, 2-((6-(dimethylamino)-2-((1s,4s)-4-hydroxy-4-methylcyclohexyl)-2H-indazol-5-yl)carbamoyl)-6-methylpyridine 1-oxide]	7.89
COc1cc2nn([C@H]3CC[C@@](O)(CC#N)CC3)cc2cc1NC(=O)c1cccc(C)[n+]1[O-] [Compound 175, 2-((2-((1r,4r)-4-(cyanomethyl)-4-hydroxycyclohexyl)-6-methoxy-2H-indazol-5-yl)carbamoyl)-6-methylpyridine 1-oxide]	8.15
COc1cc2nn(C3CCCCC3)cc2cc1NC(=O)c1cccc(C)[n+]1[O-] [Compound 285, 2-((2-cyclohexyl-6-methoxy-2H-indazol-5-yl)carbamoyl)-6-methylpyridine 1-oxide]	8.23
Cc1cccc(C(=O)Nc2cc3cn([C@H]4CC[C@](C)(O)CC4)nc3cc2N(C)C)[n+]1[O-] [Compound 010, 2-((6-(dimethylamino)-2-((1r,4r)-4-hydroxy-4-methylcyclohexyl)-2H-indazol-5-yl)carbamoyl)-6-methylpyridine 1-oxide]	7.96
COc1cc2nn([C@H]3CC[C@H](O)CC3)cc2cc1NC(=O)c1cccc(C(C)C)[n+]1[O-] [Compound 015, 2-((2-((1r,4r)-4-hydroxycyclohexyl)-6-methoxy-2H-indazol-5-yl)carbamoyl)-6-isopropylpyridine 1-oxide]	8.27
Cc1cccc(C(=O)Nc2cc3cn([C@H]4CC[C@@H](O)CC4)nc3cc2OCC2CC2)[n+]1[O-] [Compound 292, 2-((6-(cyclopropylmethoxy)-2-((1s,4s)-4-hydroxycyclohexyl)-2H-indazol-5-yl)carbamoyl)-6-methylpyridine 1-oxide]	7.85
COc1cc2nn([C@H]3CC[C@@](O)(C4CC4)CC3)cc2cc1NC(=O)c1cccc(C)[n+]1[O-] [Compound 025, 2-((2-((1r,4r)-4-cyclopropyl-4-hydroxycyclohexyl)-6-methoxy-2H-indazol-5-yl)carbamoyl)-6-methylpyridine 1-oxide]	7.89
COc1cc2nn([C@H]3CC[C@@H](O)CC3)cc2cc1NC(=O)c1cccc(C2CC2)[n+]1[O-] [Compound 218, 2-cyclopropyl-6-((2-((1s,4s)-4-hydroxycyclohexyl)-6-methoxy-2H-indazol-5-yl)carbamoyl)pyridine 1-oxide]	8.08
COc1cc2nn([C@H]3CC[C@](C)(O)CC3)cc2cc1NC(=O)c1cccc(NC2CC2)[n+]1[O-] [Compound 289, 2-(cyclopropylamino)-6-((2-((1r,4r)-4-hydroxy-4-methylcyclohexyl)-6-methoxy-2H-indazol-5-yl)carbamoyl)pyridine 1-oxide]	8.77
COc1cc2nn([C@H]3CC[C@@](O)(CC#N)CC3)cc2cc1NC(=O)c1cccc(C2CC2)[n+]1[O-] [Compound 176, 2-((2-((1r,4r)-4-(cyanomethyl)-4-hydroxycyclohexyl)-6-methoxy-2H-indazol-5-yl)carbamoyl)-6-cyclopropylpyridine 1-oxide]	8.37
COc1cc2nn(C3CCC(F)(F)CC3)cc2cc1NC(=O)c1cccc(C)[n+]1[O-] [Compound 286, 2-((2-(4,4-difluorocyclohexyl)-6-methoxy-2H-indazol-5-yl)carbamoyl)-6-methylpyridine 1-oxide]	7.85
COc1cc2nn([C@H]3CC[C@](C)(O)CC3)cc2cc1NC(=O)c1cccc(C)n1 [Compound B, N-(2-((1r,4r)-4-hydroxy-4-methylcyclohexyl)-6-methoxy-2H-indazol-5-yl)-6-methylpicolinamide, reference compound]	7.52
Cc1cccc(C(=O)Nc2cc3cn([C@H]4CC[C@H](O)CC4)nc3cc2OCC2CC2)[n+]1[O-] [Compound 019, 2-((6-(cyclopropylmethoxy)-2-((1r,4r)-4-hydroxycyclohexyl)-2H-indazol-5-yl)carbamoyl)-6-methylpyridine 1-oxide]	8.09
C#C[C@]1(O)CC[C@H](n2cc3cc(NC(=O)c4cccc(C)[n+]4[O-])c(OC)cc3n2)CC1 [Compound 187, 2-((2-((1r,4r)-4-ethynyl-4-hydroxycyclohexyl)-6-methoxy-2H-indazol-5-yl)carbamoyl)-6-methylpyridine 1-oxide]	8.04
COc1cc2nn([C@H]3CC[C@](C)(O)CC3)cc2cc1NC(=O)c1cccc(C2CC2)[n+]1[O-] [Compound 002, 2-cyclopropyl-6-((2-((1r,4r)-4-hydroxy-4-methylcyclohexyl)-6-methoxy-2H-indazol-5-yl)carbamoyl) Pyridine 1-oxide]	8.43
CCOc1cc2nn([C@H]3CC[C@@H](O)CC3)cc2cc1NC(=O)c1cccc(C)[n+]1[O-] [Compound 220, 2-((6-ethoxy-2-((1s,4s)-4-hydroxycyclohexyl)-2H-indazol-5-yl)carbamoyl)-6-methylpyridine 1-oxide]	7.85
COc1cc2nn([C@H]3CC[C@@H](O)CC3)cc2cc1NC(=O)c1cccc(C(C)C)[n+]1[O-] [Compound 288, 2-((2-((1s,4s)-4-hydroxycyclohexyl)-6-methoxy-2H-indazol-5-yl)carbamoyl)-6-isopropylpyridine 1-oxide]	7.89
COc1cc2nn([C@H]3CC[C@](C)(C#N)CC3)cc2cc1NC(=O)c1cccc(C)[n+]1[O-] [Compound 291, 2-((2-((1r,4r)-4-cyano-4-methylcyclohexyl)-6-methoxy-2H-indazol-5-yl)carbamoyl)-6-methylpyridine 1-oxide]	7.85
COc1cc2nn(C3CCCC3)cc2cc1NC(=O)c1cccc(C)[n+]1[O-] [Compound 284, 2-((2-cyclopentyl-6-methoxy-2H-indazol-5-yl)carbamoyl)-6-methylpyridine 1-oxide]	7.55
